# Experimental data taken from US4424222A, “Pyridobenzodiazepinones, pharmaceutical compositions and method of use thereof” (Karl Thomae GmbH, priority 1982, dated 1984).
# Experiments:
# [1] = Mydriasis (effect on pupil size); design: species or system rats; settings: in vivo, iv; rat, pupil size observed for 10 minutes; double blind
# Method: The effect of the test substances on the pupil size in rats was investigated as follows:
# The substances were administered intravenously to groups of 10 animals in at least three uniformly graduated doses. […] The percentage of test animals in which mydriasis occurred was determined. The ED50 values were again determined using the method of LITCHFIELD and WILCOXON (see above).
# [2] = system: muscarinic receptors (oxotremorine-induced lesions of the gastric mucous membrane); experiment: Oxotremorine test: anti-ulcerative effect (lesions in mucous membrane of stomach); type: in vivo, albino rats (Crl:COBS-CD (SD) BR strain); settings: iv; rat, i.v. 15 minutes before oxotremorine 0.62 mg/kg i.v.; neostigmine 1 mg/kg oral
# Method: (§1) Oxotremorine, a specific agonist for muscarinic receptors, produces lesions in the mucous membrane of the stomach in rats and increases their secretion of saliva. This test method was chosen so that any selective activity of an antimuscarinic substance on the stomach could be identified.
# (§2) 10 female albino rats (of the Crl:COBS-CD (SD) BR strain) with a body weight of from 120 to 150 g were used in each treatment group and were kept without food for 24 hours before the start of the test but given free access to drinking water.
# (§3) In order to determine, in preliminary tests, the muscarinic effect of oxotremorine on each of the symptoms studied, a dosage/activity curve was drawn up with at least three dosages for each symptom.
# (§4) When testing the antimuscarinic substances, the dosage of oxotremorine which triggered the symptom in question in 90 to 100% of the animals in the preliminary tests was used.
# Lesions in mucous membrane of stomach: 0.62 mg/kg i.v.
# (§5) Each antimuscarinic substance was administered intravenously in uniformly graduated doses 15 minutes before the oxotremorine was administered. Control groups were given corresponding quantities of the solvent and suspending agent without the test substance.
# (§6) Immediately after the oxotremorine was administered, the animals were placed in a glass case for 15 minutes and observed.
# (§7) The ED50 values were determined using the method described by LITCHFIELD and WILCOXON (J. Pharmacol. Exp. Ther. 96, 99, 1949).
# The effects on lesions of the mucous membrane of the stomach were evaluated as follows:
# The lesions of the gastric mucous membrane were produced by intravenous injection of 0.62 mg/kg of oxotremorine 30 minutes after the oral administration of 1 mg/kg of neostigmine (a cholinesterase inhibitor). 60 minutes after the administration of the neostigmine, the animals were killed, the stomachs were removed and opened and examined for the presence of any lesions in the mucous membrane. The protective effect of the test substances was expressed as the percentabge inhibition (percentage of animals without lesions). The ED50 and ED70 values were determined using the method of LITCHFIELD AND WILCOXON (see above).
# [3] = Oxotremorine test: inhibition of salivation; design: species or system albino rats (Crl:COBS-CD (SD) BR strain); settings: in vivo, iv; rat, i.v. 15 minutes before oxotremorine 0.083 mg/kg i.v.; double blind
# Method: as §1, §2, §3, §4
# Secretion of saliva: 0.083 mg/kg i.v.
# as §5, §6, §7
# [4] = target: muscarinic receptors (smooth muscle of the fundus of the stomach); experiment: Receptor binding test (3H-N-methylscopolamine displacement), smooth muscle fundus of stomach; design: species or system Sprague-Dawley rats; settings: 0.3 n molar 3H-NMS, 30° C., 45 minutes, read-out: Receptor binding tests IC50, Smooth muscle fundus of stomach
# Method: (§8) The organ donors were male Sprague-Dawley rats with a body weight of from 180 to 200 g. After the heart, stomach and cerebral cortex had been removed, the remainder of the operation was carried out in ice-cold Hepes-HCl buffer (pH 7.4; 100 m molar NaCl, 10 m molar MgCl2). The smooth muscle of the fundus of the stomach was separated from the mucous membrane of the stomach and subjected to preliminary homogenization. The whole heart was cut up with scissors. All the organs were then homogenized in a Potter apparatus.
# (§9) For the binding test, the homogenized organs were diluted as follows:
# Smooth muscle of the fundus of the stomach: 1:100
# (§10) The homogenized organ preparations were incubated at a specific concentration of a radio labeled compound and with a series of concentrations of the non-radioactive test substances in an Eppendorf centrifuge tube at 30° C. Then duration of incubation was 45 minutes. 0.3 n molar ^3 H-N-methylscopolamine (^3 H-NMS) was used as the radio labeled compound. After incubation had been brought to an end by centrifuging at 14 000 g, the radioactivity in the pellet was determined. It represents the sum of the specific and non-specific binding of ^3 H-NMS. The proportion of non-specific binding was defined as the radioactivity which was bound in the presence of 1μ molar quinuclidinylbenzylate. Four measurements were taken in each case. The IC50 values of the non-labelled test substances were determined graphically. They represent the concentration of test substance at which the specific binding of ^3 H-NMS to the muscarinic receptors in the various organs was inhibited by 50%.
# [5] = target: muscarinic receptors (cerebral cortex); experiment: Receptor binding test (3H-N-methylscopolamine displacement), cerebral cortex; design: species or system Sprague-Dawley rats; settings: 0.3 n molar 3H-NMS, 30° C., 45 minutes, read-out: Receptor binding tests IC50, Cortex
# Method: as §8, §9, §10
# [6] = target: T1, muscarinic receptors (whole heart) (Rattus norvegicus, UniProt P10980); experiment: Receptor binding test (3H-N-methylscopolamine displacement), heart; design: species or system Sprague-Dawley rats; settings: 0.3 n molar 3H-NMS, 30° C., 45 minutes, read-out: Receptor binding tests IC50, Heart
# T1 construct: All the organs were then homogenized in a Potter apparatus; from tissue; host or cells: whole heart homogenate of male Sprague-Dawley rats
# T1 sequence (P10980 1-466): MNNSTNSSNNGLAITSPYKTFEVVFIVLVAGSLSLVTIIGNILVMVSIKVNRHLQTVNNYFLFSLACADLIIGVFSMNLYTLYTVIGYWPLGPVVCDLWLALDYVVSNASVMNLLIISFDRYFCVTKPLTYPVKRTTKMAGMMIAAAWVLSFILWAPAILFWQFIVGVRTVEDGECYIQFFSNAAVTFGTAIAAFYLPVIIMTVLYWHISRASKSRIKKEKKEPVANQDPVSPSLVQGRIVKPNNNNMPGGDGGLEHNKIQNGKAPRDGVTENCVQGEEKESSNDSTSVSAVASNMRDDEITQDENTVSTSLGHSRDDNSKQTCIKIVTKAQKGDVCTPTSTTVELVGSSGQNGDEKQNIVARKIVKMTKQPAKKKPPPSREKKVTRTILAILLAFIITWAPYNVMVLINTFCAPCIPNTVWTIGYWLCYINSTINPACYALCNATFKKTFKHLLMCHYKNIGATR
# Method: as §8, §9
# as §10, with “They represent the concentration of test substance at which the specific binding of ^3 H-NMS to the muscarinic receptors in the various organs was inhibited by 50%.” left out
# [7] = Water solubility of the base (remark); type: physicochemical; settings: free base
Compound,ED50 at 10 min [1],ED50 [2],ED70 [2],ED50 at 0.25 h [3],IC50 [4],IC50 [5],IC50 [6],water solubility (in words) [7]
"CN1CCC(NC(=O)N2c3ccccc3C(=O)Nc3cccnc32)CC1 [B, 5,11-dihydro-11-[[(1-methyl-4-piperidinyl)amino]carbonyl]-6H-pyrido[2,3-b][1,4]benzodiazepin-6-one]",0.139 mg/kg,0.0068 mg/kg,0.019 mg/kg,0.42 mg/kg,1200 nM,200 nM,,
"CN1CCC(OC(=O)N2c3ccccc3C(=O)Nc3cccnc32)CC1 [A, 5,11-dihydro-11-[[(1-methyl-4-piperidinyl)oxy]carbonyl]-6H-pyrido[2,3,-b][1,4]benzodiazepin-6-one]",0.13 mg/kg,0.01 mg/kg,0.03 mg/kg,0.85 mg/kg,~900 nM,100 nM,500 nM,
CN1CCN(NC(=O)N2c3ccccc3C(=O)Nc3cccnc32)CC1 [C],0.07 mg/kg,0.0033 mg/kg,0.0052 mg/kg,0.056 mg/kg,900 nM,60 nM,,watersoluble
